Here are results for 2 molecules from US6696407B1, “Huntington's disease treatment comprising administering aldose reductase inhibitors to increase striatal CNTF” (The Regents of the University of California, priority 1997, dated 2004).

Entries after “also recorded” stand apart in the source; their conditions may differ.

One series has as its system CNTF. Description: Striatal CNTF levels by ELISA. It counts as in vivo, rat. The following applies: adult rats, oral 50 mg/kg/day for two months. On the procedure: CNTF protein was determined with an ELISA that utilizes a monoclonal capture antibody which recognizes a non-C-terminal epitope on both rat and human CNTF (Regeneron, Tarrytown, N.Y.). The captured CNTF was recognized by a polyclonal rabbit anti-rCNTF reporter antibody. An alkaline phosphatase-tagged goat anti-rabbit IgG was used to generate the signal. In practice, 96-well Immulon plates were coated with capture antibody overnight, then blocked and washed. After overnight incubation of standards and samples, plates were washed and reporter antibody added. Following final washes, the reaction was developed using the GIBCO BRL ELISA amplification system substrate and amplifier. The reaction was stopped with 0.5 N H2SO4 and the plates read at two wavelengths (490 nm and 650 nm).
ARIs Toirestat and Ponalrestat were orally administered to adult rats at a dose of 50 mg/kg/day for two months as described in Example 1 and in Mizisin et al (1997) Diabetes 46: 647-652. For each rat, the left and right striatum were dissected and combined for homogenization in phosphate buffered saline. CNTF levels in extract preparations were then measured by ELISA, as described in Example 1. Four rats served as controls, and five rats each received Tolrestat and Ponalrestat. Five ELISA assays were run for each rat and one mean value derived for each rat.
In general terms: An ELISA detects its analyte on a solid surface through an enzyme-linked reagent.

The conditions of series [1]: Dittrich et al. (1994); cited from earlier work.

In the case of `COc1ccc2c(C(=S)N(C)CC(=O)O)cccc2c1C(F)(F)F` [Tolrestat, N-[[6-methoxy-5-(trifluoromethyl)-1-naphthalenyl]thioxomethyl]-N-methylglycine], the “Increase in striatal CNTF activity level versus control group” value in the series with CNTF was “significantly increased; also recorded: approximately two-fold”.

B1: CNTF: member of the neuropoietic cytokine family, a protein of 200 amino acids (protein, UniProt P26441 1-200, looked up)
Ciliary neurotrophic factor: MAFTEHSPLTPHRRDLCSRSIWLARKIRSDLTALTESYVKHQGLNKNINLDSADGMPVASTDQWSELTEAERLQENLQAYRTFHVLLARLLEDQQVHFTPTEGDFHQAIHTLLLQVAAFAYQIEELMILLEYKIPRNEADGMPINVGDGGLFEKKLWGLKVLQELSQWTVRSIHDLRFISSHQTGIPARGSHYIANNKKM
Regarding B1, in series [1], the Plasma half-life is 2.9 min.
